Results as given in US20250257061A1, “COMPOSITIONS AND METHODS FOR TREATING CANCER AND REDUCING WNT MEDIATED EFFECTS” (StemSynergy Therapeutics, Inc., priority 2024, published 2025).
Where two headings read alike, the source gives them in different places.

Assays:
[1] = system: Wnt reporter (TCF/LEF1 promoter); assay: HEK STF293 Wnt reporter (TOPFlash) luciferase assay, Steady Glo normalised to Cell Titer; assay type: cell-based, human; settings: Homo sapiens, STF/293, HEK STF293 cells, Wnt3a-conditioned media, read-out: TOPFlash IC50 category
Description: All compounds were tested using the human cell line HEK STF293. This cell line carries a Wnt reporter (TCF/LEF1 promoter), which drives expression of the firefly luciferase protein. The level of Wnt activity is directly correlated with the level of luciferase activity (determined using a simple assay). Compounds that inhibit Wnt signaling by reducing luciferase activity in these two cell lines are further tested biochemically. […] Compounds were further tested in a Viability assay using Wnt-dependent HCT116 cell line. Compounds were prepared as 10 mM stocks for each compound in DMSO. Dilutions were prepared in a 96-well plate in DMSO. The stock dilutions are as follows: 10 mM, 1 mM, 100 μM, 10 μM, 100 nM, and 10 nM. Plates were sealed and stored at −20° C. […] On the first day, Wnt3a-conditioned media (1:1) were added along with diluted compounds (1:100). […] The final concentrations should therefore be 100 μM, 10 μM, 1 μM, 100 nM, 10 nM, and 1 nM. On the second day, the media was removed and 75 μL of Passive Lysis Buffer (Promega) is added to each well. The plate was shaken at 130 rpm for 15 minutes. For the Steady Glo assay, 45 μL of the lysis was removed and added to a white 96-well plate containing 45 μL/well of Steady Glo solution (Promega). For the Cell Titer assay, 25 μL of the lysis was transferred to a white 96-well plate containing 25 μL/well of Cell Titer solution (Promega). Both Steady Glo and Cell Titer assays were read with a luminescence plate reader. When determining EC50, the Steady Glo values were divided by the Cell Titer values to normalize for cell number. All compounds were tested using the human cell line HEK STF293. This cell line carries a Wnt reporter (TCF/LEF1 promoter), which drives expression of the firefly luciferase protein. The level of Wnt activity is directly correlated with the level of luciferase activity (determined using a simple assay). Compounds that inhibit Wnt signaling by reducing luciferase activity in these two cell lines are further tested biochemically. […] Compounds were further tested in a Viability assay using Wnt-dependent HCT116 cell line. Compounds were prepared as 10 mM stocks for each compound in DMSO. Dilutions were prepared in a 96-well plate in DMSO. The stock dilutions are as follows: 10 mM, 1 mM, 100 μM, 10 μM, 100 nM, and 10 nM. Plates were sealed and stored at −20° C. […] On the first day, Wnt3a-conditioned media (1:1) were added along with diluted compounds (1:100). […] The final concentrations should therefore be 100 μM, 10 μM, 1 μM, 100 nM, 10 nM, and 1 nM. On the second day, the media was removed and 75 μL of Passive Lysis Buffer (Promega) is added to each well. The plate was shaken at 130 rpm for 15 minutes. For the Steady Glo assay, 45 μL of the lysis was removed and added to a white 96-well plate containing 45 μL/well of Steady Glo solution (Promega). For the Cell Titer assay, 25 μL of the lysis was transferred to a white 96-well plate containing 25 μL/well of Cell Titer solution (Promega). Both Steady Glo and Cell Titer assays were read with a luminescence plate reader. When determining EC50, the Steady Glo values were divided by the Cell Titer values to normalize for cell number. All compounds were tested using the human cell line HEK STF293. This cell line carries a Wnt reporter (TCF/LEF1 promoter), which drives expression of the firefly luciferase protein. The level of Wnt activity is directly correlated with the level of luciferase activity (determined using a simple assay). Compounds that inhibit Wnt signaling by reducing luciferase activity in these two cell lines are further tested biochemically. […] Compounds were further tested in a Viability assay using Wnt-dependent HCT116 cell line. Compounds were prepared as 10 mM stocks for each compound in DMSO. Dilutions were prepared in a 96-well plate in DMSO. The stock dilutions are as follows: 10 mM, 1 mM, 100 μM, 10 μM, 100 nM, and 10 nM. Plates were sealed and stored at −20° C. […]

[2] = system: Wnt-dependent HCT116 cell line; assay: Viability assay using Wnt-dependent HCT116 cell line (Cell Titer Glo); assay type: cell-based; settings: Homo sapiens, HCT-116, HCT116 cells, read-out: Viability IC50 category
Description: All compounds were tested using the human cell line HEK STF293. This cell line carries a Wnt reporter (TCF/LEF1 promoter), which drives expression of the firefly luciferase protein. The level of Wnt activity is directly correlated with the level of luciferase activity (determined using a simple assay). Compounds that inhibit Wnt signaling by reducing luciferase activity in these two cell lines are further tested biochemically. […] Compounds were further tested in a Viability assay using Wnt-dependent HCT116 cell line. HEK293 cells were seeded in a 6-well plate at approximately 8.0×10^5 cells (2 mL per well). On the first day, Wnt3a-conditioned media (1:1) and compounds (1:100) were added to the plated cells. The final concentrations of compounds were 1 μM, 500 nM, and 100 nM. Vehicle (DMSO) and a Wnt3a-conditioned media plus Vehicle samples were also prepared as controls. Lysates were collected (with non-denaturing lysis buffer) after 24 hours incubation, and protein concentrations determined by Bradford Assay. Immunoblotting with an anti-beta-catenin antibody (equivalent amounts of protein/lane for each condition) were subsequently performed to determine beta-catenin levels. HCT116 cells were seeded at 2,500 cells/well in a 96-well dish (Volume: 100 μL/well). On the second day, the 10 mM stock solution of each test compound was thawed at room temperature. Dilutions of the test compound were prepared in DMSO in a V-bottom 96-well plate. The stock compound solution, DMSO-diluted compound solutions, and DMSO were further diluted 500-fold in cell culture media, and 100 μL of the compound- or DMSO-containing cell culture media was added to each well of the cells. […] The final DMSO concentration was 0.1% in all wells. On the fifth day, 150 μL of media was removed from each well. 50 μL/well Cell Titer Glo reagent (Promega) was added to each well. The plate was shaken at 130 rpm for 15 minutes at room temperature, and the cell viability was determined using a luminescence plate reader. All compounds were tested using the human cell line HEK STF293. This cell line carries a Wnt reporter (TCF/LEF1 promoter), which drives expression of the firefly luciferase protein. The level of Wnt activity is directly correlated with the level of luciferase activity (determined using a simple assay). Compounds that inhibit Wnt signaling by reducing luciferase activity in these two cell lines are further tested biochemically. […] Compounds were further tested in a Viability assay using Wnt-dependent HCT116 cell line. HEK293 cells were seeded in a 6-well plate at approximately 8.0×10^5 cells (2 mL per well). On the first day, Wnt3a-conditioned media (1:1) and compounds (1:100) were added to the plated cells. The final concentrations of compounds were 1 μM, 500 nM, and 100 nM. Vehicle (DMSO) and a Wnt3a-conditioned media plus Vehicle samples were also prepared as controls. Lysates were collected (with non-denaturing lysis buffer) after 24 hours incubation, and protein concentrations determined by Bradford Assay. Immunoblotting with an anti-beta-catenin antibody (equivalent amounts of protein/lane for each condition) were subsequently performed to determine beta-catenin levels. HCT116 cells were seeded at 2,500 cells/well in a 96-well dish (Volume: 100 μL/well). On the second day, the 10 mM stock solution of each test compound was thawed at room temperature. Dilutions of the test compound were prepared in DMSO in a V-bottom 96-well plate. The stock compound solution, DMSO-diluted compound solutions, and DMSO were further diluted 500-fold in cell culture media, and 100 μL of the compound- or DMSO-containing cell culture media was added to each well of the cells. […] The final DMSO concentration was 0.1% in all wells. On the fifth day, 150 μL of media was removed from each well. 50 μL/well Cell Titer Glo reagent (Promega) was added to each well. The plate was shaken at 130 rpm for 15 minutes at room temperature, and the cell viability was determined using a luminescence plate reader. […]

[3] = Examples for Formulae (IV), (V), (VI), and (VII)
[4] = Examples for Formulae (I), (II), and (III)
[5] = Examples for Formulae (VIII), (IX), and (X)

Row | Compound | IC50 [1, 3] [nM] | IC50 [2, 3] [nM] | IC50 [1, 4] [nM] | IC50 [2, 4] [nM] | further results
1 | CCc1nc(-c2ccc(F)cc2)c(C(=O)Nc2nc(-c3ccccn3)cs2)o1 [Example 13] | < 200 | < 200 | – | – | –
2 | Cc1nn(Cc2ccc(Cl)cc2Cl)c(Cl)c1C(=O)Nc1nc(-c2ccccn2)cs1 [Example 13] | – | – | 500 to 1000 | 500 to 1000 | –
3 | O=C(Nc1nc(-c2ccccn2)cs1)c1cccnc1Oc1ccc(C(F)(F)F)cc1 [Example 13] | – | – | – | – | IC50 [1, 5]: 200 to 500 nM; IC50 [2, 5]: 500 to 1000 nM
4 | Cc1onc(-c2c(F)cccc2Cl)c1C(=O)Nc1nc(-c2ccccn2)cs1 [Example 14] | < 200 | 200 to 500 | – | – | –
5 | O=C(Nc1nc(-c2ccccn2)cs1)c1cn(-c2ccccc2)nc1-c1ccccc1 [Example 14] | – | – | < 200 | 200 to 500 | –
6 | Cc1nn(Cc2ccc(C(F)(F)F)cc2)c(C)c1C(=O)Nc1nc(-c2ccccn2)cs1 [Example 16] | – | – | 500 to 1000 | 500 to 1000 | –
7 | Cc1onc(-c2ccc(Cl)cc2F)c1C(=O)Nc1nc(-c2ccccn2)cs1 [Example 16] | 200 to 500 | 200 to 500 | – | – | –
8 | Cc1onc(-c2ccc(Cl)cc2Cl)c1C(=O)Nc1nc(-c2ccccn2)cs1 [Example 17] | 200 to 500 | 200 to 500 | – | – | –
9 | O=C(Nc1nc(-c2ccccn2)cs1)c1c(C(F)(F)F)nn(-c2ccccc2)c1C(F)(F)F [Example 17] | – | – | 1000 to 10000 | 1000 to 10000 | –
10 | COc1cccc(-c2noc(C)c2C(=O)Nc2nc(-c3ccccn3)cs2)c1 [Example 18] | 200 to 500 | 500 to 1000 | – | – | –
11 | O=C(Nc1nc(-c2ccccn2)cs1)c1cnnn1-c1cccc(F)c1 [Example 18] | – | – | 200 to 500 | 200 to 500 | –
12 | Cc1cc(C(=O)Nc2nc(-c3ncccc3C)co2)n(-c2ccc(S(C)(=O)=O)cc2)n1 [Example 19] | – | – | – | – | IC50 [1, 5]: < 200 nM; IC50 [2, 5]: 200 to 500 nM
13 | Cc1onc(-c2cccc(F)c2F)c1C(=O)Nc1nc(-c2ccccn2)cs1 [Example 19] | 200 to 500 | 200 to 500 | – | – | –
